# According to the supplement of paper PMC10307832:
# Assays:
# Assay in all cases: relative viability (nuclei count vs DMSO), 5 days (fraction); higher = more cells survive
# Apatinib + Foretinib = compound: N#CC1(c2ccc(NC(=O)c3cccnc3NCc3ccncc3)cc2)CCCC1 [Apatinib] + COc1cc2c(Oc3ccc(NC(=O)C4(C(=O)Nc5ccc(F)cc5)CC4)cc3F)ccnc2cc1OCCCN1CCOCC1 [Foretinib] (partner 0.25 µM)
# How it was run: (§1)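 Nuclei were stained with Hoechst during a one-step fixation (final 0.05% Triton X-100, 1% formaldehyde, 1 ug/ml Hoechst) carried out 5 days after dosing, then counted on 4× images. The cells, lung cancer lines in 1536-well plates, had been dosed by pin tool the day after seeding with one drug alone or a fixed anchor-drug dose plus five library-drug doses (not always all listed) in √10 steps. Relative viability is the nuclei count in treated wells divided by that in vehicle wells, and each value is the median of duplicate plates.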
# Apatinib + Crizotinib = compound: N#CC1(c2ccc(NC(=O)c3cccnc3NCc3ccncc3)cc2)CCCC1 [Apatinib] + C[C@@H](Oc1cc(-c2cnn(C3CCNCC3)c2)cnc1N)c1c(Cl)ccc(F)c1Cl [Crizotinib] (partner 1 µM)
# How it was run: as §1
# Metformin + Dasatinib = compound: CN(C)C(=N)NC(=N)N [Metformin] + Cc1nc(Nc2ncc(C(=O)Nc3c(C)cccc3Cl)s2)cc(N2CCN(CCO)CC2)n1 [Dasatinib] (partner 0.075 µM)
# How it was run: as §1
# Metformin + Alpelisib = compound: CN(C)C(=N)NC(=N)N [Metformin] + Cc1nc(NC(=O)N2CCC[C@H]2C(N)=O)sc1-c1ccnc(C(C)(C)C(F)(F)F)c1 [Alpelisib] (partner 2 µM)
# How it was run: as §1
Cell Line,relative viability (Apatinib + Foretinib; first compound 0.08 µM),relative viability (Apatinib + Foretinib; first compound 0.253 µM),relative viability (Apatinib + Foretinib; first compound 0.8 µM),relative viability (Apatinib + Foretinib; first compound 2.53 µM),relative viability (Apatinib + Foretinib; first compound 8 µM),relative viability (Apatinib + Crizotinib; first compound 0.08 µM),relative viability (Apatinib + Crizotinib; first compound 0.253 µM),relative viability (Apatinib + Crizotinib; first compound 0.8 µM),relative viability (Apatinib + Crizotinib; first compound 2.53 µM),relative viability (Apatinib + Crizotinib; first compound 8 µM),relative viability (Metformin + Dasatinib; first compound 31.62 µM),relative viability (Metformin + Dasatinib; first compound 100 µM),relative viability (Metformin + Dasatinib; first compound 316.23 µM),relative viability (Metformin + Dasatinib; first compound 1000 µM),relative viability (Metformin + Alpelisib; first compound 31.62 µM),relative viability (Metformin + Alpelisib; first compound 100 µM),relative viability (Metformin + Alpelisib; first compound 316.23 µM),relative viability (Metformin + Alpelisib; first compound 1000 µM),relative viability (Metformin + Dasatinib; first compound 10 µM),relative viability (Metformin + Alpelisib; first compound 10 µM)
201T,1.15,1.11,1.05,1.06,0.813,1.02,1.04,0.996,1.03,0.992,0.579,0.63,0.53,0.559,0.987,0.989,0.955,0.985,–,–
SW 1573,0.981,1.07,0.963,0.854,0.821,0.946,0.867,0.748,0.74,0.58,0.833,0.708,0.425,0.551,0.82,0.795,0.8,0.797,0.589,0.853
NCI-H2170,1.04,0.958,0.978,0.983,0.846,1.23,1.22,1.11,1.12,1.07,0.625,0.619,0.664,0.634,0.792,0.819,0.806,0.805,0.514,0.748
NCI-H1993,0.85,0.766,0.808,0.702,0.687,0.943,0.868,0.782,0.801,0.68,0.59,0.665,0.639,0.703,0.67,0.643,0.62,0.705,0.764,0.634
NCI-H1755,0.984,0.954,0.912,0.91,0.806,0.858,0.885,0.911,0.803,0.769,0.332,0.433,0.36,0.417,0.826,0.796,0.724,0.798,0.422,0.767
NCI-H1437,1.28,1.26,1.24,1.03,1.02,1.01,1,0.92,0.726,0.632,0.48,0.359,0.41,0.415,1.03,1.07,1.05,1.01,0.602,1.11
EPLC-272H,0.773,–,0.802,0.671,0.394,0.944,0.933,0.767,0.8,0.991,0.445,0.462,0.426,0.394,1.04,1.1,1.04,1.13,0.358,1.15
LK-2,1.37,1.13,1.13,1.1,0.645,0.243,0.218,0.212,0.237,0.242,0.424,0.381,0.383,0.558,1.53,1.63,1.36,1.32,0.447,1.56
NCI-H1975,1.13,0.907,0.84,0.862,0.783,1,0.967,0.78,0.814,0.78,0.417,0.553,0.418,0.402,0.839,0.862,0.707,0.861,0.558,0.766
HARA,0.976,0.898,0.812,0.847,0.93,1.04,0.944,1.05,1.05,0.806,0.311,0.389,0.319,0.423,0.902,1.06,0.89,0.964,–,0.915
SK-MES-1,1.02,0.935,0.967,0.838,0.896,0.983,0.937,0.897,0.955,0.796,0.41,0.338,0.314,0.321,0.802,0.732,0.822,0.909,0.252,0.814
NCI-H2405,1.15,1.02,1.09,0.998,1.09,0.936,0.863,0.883,0.762,0.811,0.265,0.253,0.272,0.255,0.971,0.852,0.453,0.373,0.272,0.873
NCI-H1734,0.932,0.833,0.839,0.732,0.676,0.67,0.812,0.76,0.596,0.579,0.472,0.463,0.47,0.498,0.718,0.715,0.681,0.827,0.413,0.697
NCI-H1915,1.18,1.08,1.03,0.943,0.836,0.945,0.864,0.855,0.819,0.78,0.34,0.346,0.335,0.355,1.14,1.09,1.04,1.11,–,–
NCI-H2228,0.933,0.791,0.777,0.688,0.51,0.542,0.418,0.506,0.42,0.262,0.576,0.438,0.458,0.55,0.85,–,0.542,0.898,0.519,0.917
NCI-H650,1.05,1.05,1.02,0.871,0.806,0.664,0.843,0.676,0.562,0.43,0.438,0.339,0.502,0.332,1.29,1.33,1.23,1.37,0.466,1.22
NCI-H2009,1.39,1.18,1.17,1.07,0.853,1.05,1.1,1.02,0.814,0.698,0.522,0.483,0.401,0.467,1.16,1.13,1.17,1.1,0.503,1.25

Cell Line,relative viability (Apatinib + Foretinib; first compound 0.08 µM),relative viability (Apatinib + Foretinib; first compound 0.253 µM),relative viability (Apatinib + Foretinib; first compound 0.8 µM),relative viability (Apatinib + Foretinib; first compound 2.53 µM),relative viability (Apatinib + Foretinib; first compound 8 µM),relative viability (Apatinib + Crizotinib; first compound 0.08 µM),relative viability (Apatinib + Crizotinib; first compound 0.253 µM),relative viability (Apatinib + Crizotinib; first compound 0.8 µM),relative viability (Apatinib + Crizotinib; first compound 2.53 µM),relative viability (Apatinib + Crizotinib; first compound 8 µM),relative viability (Metformin + Dasatinib; first compound 31.62 µM),relative viability (Metformin + Dasatinib; first compound 100 µM),relative viability (Metformin + Dasatinib; first compound 316.23 µM),relative viability (Metformin + Dasatinib; first compound 1000 µM),relative viability (Metformin + Alpelisib; first compound 31.62 µM),relative viability (Metformin + Alpelisib; first compound 100 µM),relative viability (Metformin + Alpelisib; first compound 316.23 µM),relative viability (Metformin + Alpelisib; first compound 1000 µM),relative viability (Metformin + Dasatinib; first compound 10 µM),relative viability (Metformin + Alpelisib; first compound 10 µM)
NCI-H23,1,1.21,1.05,1,1.1,0.49,0.578,0.421,0.49,0.57,0.876,0.833,0.499,0.802,0.941,0.696,0.715,0.901,0.759,0.825
NCI-H2087,1.22,1.13,0.91,1.02,0.899,0.89,0.799,0.741,0.614,0.7,0.933,0.891,0.676,0.693,0.858,1.05,0.982,0.963,–,1.09
NCI-H358,0.83,0.912,0.671,0.685,0.696,0.682,0.586,0.525,0.54,0.43,0.127,0.118,0.212,0.14,0.911,1.07,0.915,1.25,0.143,1.1
ABC-1,–,1.27,0.961,1.1,1.02,–,1.42,1.11,0.932,0.614,0.73,0.659,0.316,0.31,1.08,0.999,0.745,0.349,0.414,–
PC-14,1.02,1.01,0.83,0.973,1.06,0.925,0.99,0.841,0.863,0.915,0.285,0.253,0.235,0.233,0.886,0.873,0.975,0.893,0.337,0.829
NCI-H596,0.771,0.888,0.624,0.99,0.853,0.923,1.12,1.07,0.861,0.969,0.67,0.757,0.696,0.655,0.652,0.655,0.547,0.577,0.622,0.627
LOU-NH91,0.979,0.891,0.836,0.891,0.829,0.76,0.751,0.722,0.69,0.629,0.491,0.498,0.538,0.499,0.709,0.806,0.634,0.642,0.576,0.762
LU99A,0.88,0.891,0.769,0.78,0.682,0.585,0.55,0.526,0.444,0.458,0.459,0.511,0.516,0.538,0.4,0.379,0.382,0.44,0.415,0.404
NCI-H1355,0.961,0.9,1.07,0.9,0.786,1.04,1.03,1.03,0.943,0.815,0.638,0.681,0.638,0.778,0.787,0.853,0.857,0.842,0.718,0.746
NCI-H2023,0.963,0.751,0.849,1.02,0.794,0.717,0.737,0.69,0.699,0.643,0.618,0.703,0.493,0.662,0.558,0.627,–,0.506,0.599,–
NCI-H2347,0.657,0.912,0.856,–,0.766,0.795,0.751,0.772,0.578,0.645,0.369,–,0.307,0.354,0.968,1.09,0.961,1.01,0.336,0.771
LC-2-ad,0.935,0.89,0.904,0.947,0.868,0.477,0.496,0.463,0.473,0.482,0.598,0.606,0.372,0.44,0.812,0.671,0.69,0.651,–,–
NCI-H661,1,0.93,1.04,1.02,0.941,1.02,1.03,1.02,0.934,0.916,0.895,0.995,0.828,0.893,0.404,0.711,0.757,0.774,–,0.745
NCI-H1666,0.953,0.998,0.942,0.943,1.03,1.15,1.28,0.985,1.14,0.718,0.957,0.79,0.798,0.779,1.05,1.12,0.981,1.29,0.752,0.943
SK-LU-1,1.01,0.857,0.859,0.719,0.732,1.04,0.806,0.761,0.785,0.566,0.192,0.174,0.17,0.177,0.934,0.829,0.948,1.07,0.171,0.916
HOP-62,1.15,1.18,1.11,1.1,0.848,0.989,–,0.868,0.935,0.654,0.664,0.687,0.713,0.655,0.77,0.777,0.928,0.934,0.748,0.828
